Measurements published in PMC13534789, “Molecular Glue Degraders Enhance CAPRIN1‐Dependent Lysosomal Degradation of APP and Reduce Amyloid β in Alzheimer's Disease” (Advanced Science, 2026).

Experiments:
[1] = system: CAPRIN1, G3BP1, BACE1, ADAM10, PSEN1, nicastrin, GGA1, Sorla, neprilysin; assay: Western blot of CAPRIN1, G3BP1 and other AD-related proteins; assay type: cell-based, human; conditions: 10 µM
iPSC‐Ns = assay: Cell viability / cytotoxicity of iPSC-derived neurons; assay type: cell-based, human; conditions: AG27606-Ns, 10 µM, 72 h
Procedure: Cytotoxicity test was conducted using Neutral Red Uptake assay. In brief, iPSC‐Ns seeded in 96 well plates (1 × 10^5 cells/well) were treated dose‐dependently for 5 days. Cells were washed with PBS containing CaCl2 and MgCl2 followed by the addition of Neutral red solution (40 µg/mL in PBS, Sigma–Aldrich) and incubation at 37°C for 3 h. Cells were then washed with PBS containing CaCl2 and MgCl2 two times and de‐stained using with Neutral red de‐staining solution on a plate shaker for 30 min, followed by reading at 540 nm with a Microplate reader. Cell viability was determined using the CellTiter‐Glo Luminescent Cell Viability Assay (Promega) following the manufacturer's instructions. […]

| Structure (SMILES) | CAPRIN1 and G3BP1 protein levels ([1]; HEK-APP695WT cells, 12–72 h) | Levels of other AD-related proteins (BACE1, ADAM10, PSEN1, nicastrin, GGA1, Sorla, neprilysin) ([1]; SAD2.3-Ns, 72 h) | Neuronal toxicity (CellTiter-Glo) (iPSC‐Ns) |
| --- | --- | --- | --- |
| N#Cc1cccc(NC(=O)Nc2nc3ccc(C(=O)N4CCOCC4)cc3s2)c1 [compound 0043] | no effect | did not affect levels |  |
| COc1cccc(NC(=O)Nc2nc3ccc(C(=O)N4CCOCC4)cc3s2)c1 [compound 0152] |  |  | without neuronal toxicity |
